One experiment relates to GABAA receptor. As to the kind of experiment: PDSP radioligand binding assay (Example 6). The note with it: Example 6, written in present tense. Here is the method: Primary and secondary radioligand binding assays are performed. In general, the primary assay is run at very high ligand (compound) concentration as a broad screen to determine whether a compound binds to a particular receptor. If greater than 50% inhibition at 10 μM (high concentration of compound) at a particular receptor is determined, a secondary assay is performed on that receptor. Data from the secondary assay is the binding affinity (Ki value).
A solution of the compound to be tested is prepared as a 1 mg/ml stock in Standard Binding Buffer or dimethyl sulfoxide (DMSO) according to its solubility. A similar stock of a reference compound (positive control) is also prepared. […]
The 250 μL reactions are incubated at room temperature and shielded from light (to prevent photolysis of light-sensitive ligands) for 1.5 hours, then harvested by rapid filtration onto Whatman GF/B glass fiber filters pre-soaked with 0.3% polyethyleneimine using a 96-well Brandel harvester. […] The tubes are capped, labeled, and counted by liquid scintillation counting. For higher throughput assays, bound radioactivity is harvested onto 0.3% polyethyleneimine-treated, 96-well filter mats using a 96-well Filtermate harvester. The filter mats are dried, then scintillant is melted onto the filters, and the radioactivity retained on the filters is counted in a Microbeta scintillation counter. […]

Experiment [1] deals with T1, GABAA receptor α1 subtype with β2 and γ2 subunits (Homo sapiens, UniProt P14867+P18507).
T1 construct: expressed in transfected cells; host or cells: HEKT cell line, transient transfection with Fugene 6
As to the kind of experiment: Competition binding assay with [3H]flunitrazepam. The settings on record: [3H]flunitrazepam, α1β2γ2, HEKT cells; read-out: GABAA RECEPTOR BINDING α1. The source says: (§1) Bound radioactivity is quantified by liquid scintillation counting.

The target of experiment [2] is T2, GABAA receptor α2 subtype with β2 and γ2 subunits (Homo sapiens, UniProt P18507+P47869).
T2 construct: expressed in transfected cells; host or cells: HEKT cell line, transient transfection with Fugene 6
As to the kind of experiment: Competition binding assay with [3H]flunitrazepam. The note with it: [3H]flunitrazepam, α2β2γ2, HEKT cells; read-out: GABAA RECEPTOR BINDING α2.
Source text: as §1

Experiment [3] deals with T3, GABAA receptor α5 subtype with β2 and γ2 subunits (Homo sapiens, UniProt P18507+P31644).
T3 construct: expressed in transfected cells; host or cells: HEKT cell line, transient transfection with Fugene 6
As to the kind of experiment: Competition binding assay with [3H]flunitrazepam. The settings on record: [3H]flunitrazepam, α5β2γ2, HEKT cells; read-out: GABAA RECEPTOR BINDING α5.
Source text: as §1

The target of experiment [4] is T4, GABAA receptor α3 subtype with β2 and γ2 subunits (Homo sapiens, UniProt P18507+P34903).
T4 construct: expressed in transfected cells; host or cells: HEKT cell line, transient transfection with Fugene 6
As to the kind of experiment: Competition binding assay with [3H]flunitrazepam. The note with it: [3H]flunitrazepam, α3β2γ2, HEKT cells; read-out: GABAA RECEPTOR BINDING α3.
Source text: as §1

Experiment [5] relates to BzR/GABAa-ergic receptors. The note with it: Example 8, written in present tense.

For the compound `CC(C)(C)OC(=O)c1cc2c(cn1)[nH]c1cnccc12` [Compound 3, Tert-Butyl pyridine[4′,5′-5,4]pyrrolo[2,3-c]pyridine-3-carboxylate], the “binding to GABAA receptor (in words)” value in the experiment on GABAA receptor was “shown to bind to GABAA receptor”. The Ki in experiment [1] came out at 2.9 nM; in experiment [2] it was 2.5 nM; in experiment [3] it was 3.7 nM; in experiment [4] it was 3.4 nM.
Take “tert-Butyl pyridine[4′,5′-4,5]pyrrolo[3,2-c]pyridine-8-carboxylate [Compound 1]”: in experiment [5], the “binding to the BzR/GABAa-ergic receptors (in words)” value was “potently binds”. Besides, the “binding to GABAA receptor (in words)” value in the experiment with GABAA receptor is “shown to bind to GABAA receptor”.

The values above are taken from patent US8268854B2, “Aza-beta-carbolines and methods of using same” (The UWM Research Foundation, Inc., priority 2008, dated 2012).
